Data reported in paper PMC9657394, “Purification and Characterization of Bot33: A Non-Toxic Peptide from the Venom of Buthus occitanus tunetanus Scorpion” (Molecules, 2022).

Legend:
Shaker IR = test: Two-electrode voltage-clamp, Shaker IR expressed in Xenopus laevis oocytes; assay type: cell-based, Drosophila; settings: 1 µM, 250-ms depolarization to 0 mV from −90 mV, pH 7.4, 18–22 °C
From the text: (§1) For the expression of Kv channels (mammalian rKv1.1, rKv1.2, hKv1.3, rKv1.4, rKv1.5, rKv1.6, and Drosophila Shaker IR) in Xenopus laevis oocytes, the linearized plasmids were transcribed using the T7 or SP6 mMESSAGE-mMACHINE transcription kit (Ambion, Carlsbad, CA, USA). The harvesting of stage V–VI oocytes from anesthetized female Xenopus laevis frog was previously described in compliance with the regulations of the European Union (EU) concerning the welfare of laboratory animals as declared in Directive 2010/63/EU. The use of X. laevis oocytes was approved by the Animal Ethics Committee of the KU Leuven with the license number P186/2019. Oocytes were injected with 50 nl of cRNA at a concentration of 1 ng/nl using a microinjector (Drummond Scientific, Broomall, PA, USA). […]
(§2) Two-electrode voltage-clamp recordings were performed at room temperature (18–22 °C) using a Geneclamp 500 amplifier (Molecular Devices, Downingtown, PA, USA) controlled by a pClamp data acquisition system (Axon Instruments, Union City, CA, USA). Whole-cell currents from oocytes were recorded 1–4 days after injection. […] All data were analyzed using pClamp Clampfit 10.1 (Molecular Devices, Downingtown, PA, USA) and Origin 7.5 software (Originlab, Northampton, MA, USA).

hKv1.3 = test: Two-electrode voltage-clamp, Kv1.3 expressed in Xenopus laevis oocytes; assay type: cell-based, mammalian; settings: 1 µM, 250-ms depolarization to 0 mV from −90 mV, pH 7.4, 18–22 °C
From the text: as §1, §2

mice = tested on: mice; set-up: method as in PMID 1730708; settings: ref [22]; cited from earlier work

Row | Substance | effect on Shaker IR current (Shaker IR) | effect on Kv1.3 current (hKv1.3) | LD50 (mice)
1 | ChTx: control toxin tested on Kv1.3 and Shaker IR | completely inhibited the current | completely inhibited the current | 
2 | KTX: toxin with LD50 ≈ 24 ng/20 g mice |  |  | ≈ 24 ng/20 g mice
